For series [1], the system named is Mycobacterium tuberculosis. As to the kind of experiment: Antibacterial activity against Mycobacterium tuberculosis H37Rv ATCC 27294 after 7 days by resazurin microtiter assay. The settings on record: H37Rv ATCC 27294, 168 h. It counts as functional. A general note: Resazurin is reduced to fluorescent resorufin, in cell work by metabolically active cells.
The test system of series [2] is J774.A1. As to the kind of experiment: Cytotoxicity against mouse J774A.1 cells after 24 hrs by resazurin dye-based fluorescence assay. It counts as cell-based. The settings on record: J774.A1, 24 h.
Series [3] is described as follows: Selectivity index, ratio of IC50 for mouse J774A.1 cells to MIC90 for Mycobacterium tuberculosis H37Rv ATCC 27294. It is filed as toxicity. The settings on record: read-out: Selectivity Index.
Series [4] has as its system MRC5. Description: Cytotoxicity against human MRC5 cells after 24 hrs by resazurin dye-based fluorescence assay. It is filed as cell-based. The settings on record: MRC5, 24 h.
Series [5] can be described thus: Selectivity index, ratio of IC50 for human MRC5 cells to MIC90 for Mycobacterium tuberculosis H37Rv ATCC 27294. It counts as toxicity. The settings on record: read-out: Selectivity Index.

pIC50: −log10 of the molar value. ≈ marks a conversion by molar mass, not a printed value.

What is called MIC90 is an inhibitory concentration at the 90% level, which refers to growth in some studies and to a panel of isolates in others. As a reminder, the pIC50 is −log10 of the IC50, conventionally taken in molar units.

In series [1], `Cc1oc2nc(N3CCCC3)ccc2c1C(=O)O` displayed an MIC90 of over 102 µM.

In series [1], `CC[C@@H](CO)NCCN[C@@H](CC)CO` [ETHAMBUTOL] displayed an MIC90 of 7 µM (≈ 1.43 µg/mL).

For the molecule `CCOC(=O)c1c(C)oc2nc(N3CCOCC3)ccc12`, the MIC90 in series [1] is over 86.1 µM.

As for `CCCCNc1ccc2c(C(=O)OCC)c(C(C)C)oc2n1`, the MIC90 in series [1] was determined as 23.2 µM (≈ 7.06 µg/mL). Besides, the negative-log IC50 (pIC50) in series [2] and in series [4] was under 3.48 each time. The selectivity ratio in series [3] and in series [5] was over 14.2 in each case.

Molecule `CCOC(=O)c1c(C)oc2nc(N3CCN(c4ccccc4)CC3)ccc12` yielded an MIC90 in series [1] of over 68.5 µM.

`CNC(=O)c1c(C(C)C)oc2nc(N3CCCC3)ccc12` returned an MIC90 in series [1] of over 87 µM.

Molecule `CCOC(=O)c1c(C)oc2ncc(N3CCCC3)cc12` displayed an MIC90 in series [1] of 82.3 µM (≈ 22.6 µg/mL). The negative-log IC50 (pIC50) in series [2] is 3.59; in series [4] it was under 3.44. Also, the selectivity ratio in series [3] was 3.2; in series [5], over 4.4.

On to `CCOC(=O)c1c(-c2ccccc2)oc2nc(N3CCCC3)ccc12`, for which the MIC90 in series [1] is over 74.4 µM. This molecule had a negative logarithm of the IC50 (pIC50) in series [4] of under 3.53.

For the molecule `CCCSc1ccc2c(C(=O)OCC)c(C(C)C)oc2n1`, the MIC90 in series [1] was over 81.3 µM.

Consider `CCOC(=O)c1c(C(C)C)oc2nc(N3CCCC3)ccc12`, for which the MIC90 in series [1] turned out to be 32.8 µM (≈ 9.92 µg/mL). In addition, the pIC50 in series [2] and in series [4] was under 3.48 each time. Also, the selectivity ratio in series [3] and in series [5] was over 10.1 in each case.

Turning to `CC(C)c1oc2nc(N3CCCC3)ccc2c1C(=O)O`, the MIC90 in series [1] was over 91.1 µM.

The molecule `CNC(=O)c1c(-c2ccc(O)cc2)oc2ccc(O)c(CN3CCCCC3)c12` came in with an MIC90 in series [1] of 0.09 µM (≈ 0.0342 µg/mL).

`CCOC(=O)c1c(C(C)C)oc2nccc(N3CCOCC3)c12` showed an MIC90 in series [1] of over 78.5 µM. The molecule also gave a negative-log IC50 (pIC50) in series [2] of 3.67.

`CO[C@H]1/C=C/O[C@@]2(C)Oc3c(C)c(O)c4c(O)c(c(/C=N/N5CCN(C)CC5)c(O)c4c3C2=O)NC(=O)/C(C)=C\C=C\[C@H](C)[C@H](O)[C@@H](C)[C@@H](O)[C@@H](C)[C@H](OC(C)=O)[C@@H]1C` [RIFAMPIN] came in with an MIC90 in series [1] of 0.06 µM (≈ 0.0494 µg/mL).

Turning to `CCCSc1cnc2oc(C(C)C)c(C(=O)OCC)c2c1`, in series [1], the MIC90 is over 81.3 µM.

In series [1], `CNC(=O)c1c(C)oc2nc(N3CCCC3)ccc12` displayed an MIC90 of over 96.4 µM.

Molecule `CCOC(=O)c1c(C)oc2ncc(N3CC[C@@H](F)C3)cc12` had an MIC90 in series [1] of over 85.6 µM. The pIC50 in series [4] was under 3.47.

In the case of `NNC(=O)c1ccncc1` [ISONIAZID], the MIC90 in series [1] was 0.8 µM (≈ 0.11 µg/mL).

In turn, `CCOC(=O)c1c(C(C)C)oc2nc(N3CCN(c4ccc(Cl)cc4)CC3)ccc12` registered an MIC90 in series [1] of over 58.5 µM.

As for `CCOC(=O)c1c(C(C)C)oc2nccc(N3CCN(c4ccc(Cl)cc4)CC3)c12`, the MIC90 in series [1] is over 58.5 µM. The pIC50 in series [2] was under 3.63.

In series [1], `CCCCNc1cnc2oc(C(C)C)c(C(=O)OCC)c2c1` gave an MIC90 of over 82.1 µM.

`CCOC(=O)c1c(C(C)C)oc2nc(N3CCOCC3)ccc12` had an MIC90 in series [1] of over 78.5 µM.

`CCOC(=O)c1c(-c2ccccc2)oc2ncc(N3CCCC3)cc12` showed an MIC90 in series [1] of over 74.4 µM. This molecule also showed a pIC50 in series [4] of under 3.53.

Consider `COc1c(N2C[C@@H]3CCCN[C@@H]3C2)c(F)cc2c(=O)c(C(=O)O)cn(C3CC3)c12` [MOXIFLOXACIN], for which the MIC90 in series [1] was under 0.2 µM.

In turn, `CCOC(=O)c1c(C)oc2nc(N3CCCC3)ccc12` displayed an MIC90 in series [1] of 10.5 µM (≈ 2.88 µg/mL). In addition, the negative logarithm of the IC50 (pIC50) is 3.71 in series [2] and under 3.44 in series [4]. Further, the selectivity ratio in series [3] is 18.7; in series [5], over 34.7.

Take `N[C@@H]1CONC1=O` [CYCLOSERINE]: in series [1], the MIC90 was found to be 37.1 µM (≈ 3.79 µg/mL). This lies in the double-digit micromolar range.

On to `CCOC(=O)c1c(C)oc2nccc(N3CCOCC3)c12`, for which the MIC90 in series [1] is over 86.1 µM. In addition, the pIC50 in series [2] is under 3.50.

Regarding `NCC[C@H](O)C(=O)N[C@@H]1C[C@H](N)[C@@H](O[C@H]2O[C@H](CN)[C@@H](O)[C@H](O)[C@H]2O)[C@H](O)[C@H]1O[C@H]1O[C@H](CO)[C@@H](O)[C@H](N)[C@H]1O` [AMIKACIN], the MIC90 in series [1] was determined as 0.4 µM (≈ 0.234 µg/mL).

For the molecule `CCOC(=O)c1c(C(C)C)oc2nccc(N3CCN(c4ccccc4)CC3)c12`, in series [1], the MIC90 was over 63.6 µM. This molecule gave a pIC50 in series [2] of 3.63.

With `CCOC(=O)c1c(C)oc2nccc(N3CCN(c4ccccc4)CC3)c12`, the MIC90 in series [1] was over 68.5 µM. This molecule also gave a pIC50 in series [2] of 3.92.

For `CCOC(=O)c1c(C(C)C)oc2nc(N3CCN(c4ccccc4)CC3)ccc12`, in series [1], the MIC90 was over 63.6 µM.

As for `CCOC(=O)c1c(C)oc2nc(N3CC[C@@H](F)C3)ccc12`, the MIC90 in series [1] was over 85.6 µM. Besides, the pIC50 in series [4] was under 3.47.

The values above are taken from ChEMBL document CHEMBL4400559, “Exploiting the furo[2,3-b]pyridine core against multidrug-resistant Mycobacterium tuberculosis” (Bioorg Med Chem Lett, 2019).
